What was measured:
3T3-L1 preadipocytes [1] = experiment: Triglyceride content after induction of 3T3-L1 preadipocyte differentiation; assay type: cell-based, mouse; conditions: differentiated 3T3-L1 cells; predetermined concentration of test material
Procedure: (§1) 3T3-L1 mouse preadipocytes (American Type Culture Collection) were incubated in an incubator set to 37° C., humidity of 95% and 5% CO2. The 3T3-L1 mouse preadipocytes were sufficiently proliferated using a proliferation medium (Dulbecco's modified Eagle's medium (DMEM) supplemented with 5% fetal bovine serum (FBS), 100 U/mL of penicillin and 100 μg/mL of streptomycin), and treated with a differentiation medium (DMEM containing 5% FBS, 0.5 mM 3-isobutyl-1-methylxanthine, […] dexamethasone and 10 μg/mL insulin) for 4 days. Afterward, the 3T3-L1 mouse preadipocytes were treated with an induction medium (DMEM containing 5% FBS and 10 μg/mL insulin, DMEM containing 5% FBS) for 2 days, and to maintain differentiated adipocytes until the end of the experiment, the induction medium was replaced every day. The 3T3-L1 cells were used in Experimental Examples 1, 2, and 3.
(§2) Preadipocytes, 3T3-L1 cells, were incubated in a dish having a diameter of 10 cm^2 by the same method as described in Experimental Example 1, and then treated with a predetermined concentration of a test material diluted with a culture medium. After treatment, a triglyceride content was confirmed using an assay kit.

3T3-L1 preadipocytes [2] = experiment: Glycerol content after induction of 3T3-L1 preadipocyte differentiation; assay type: cell-based, mouse; conditions: differentiated 3T3-L1 cells; predetermined concentration of test material
Procedure: as §1
as §2, with “glycerol” for “triglyceride”

3T3-L1 preadipocytes [3] = experiment: Oil-Red-O staining of lipid droplets after induction of 3T3-L1 preadipocyte differentiation; assay type: cell-based, mouse; conditions: 50 μM test material; differentiated 3T3-L1 cells
Procedure: as §1
To confirm capacity of inhibiting the formation of lipid droplets of a test material, 3T3-L1 cells, which are preadipocytes, were induced to differentiate into adipocytes, and then the lipid droplets were stained through the Oil-Red-O staining.
First, after preadipocytes, 3T3-L1 cells, were incubated in a dish having a diameter of 10 cm^2, excluding G1 and G2, the cells were treated with 50 μM of a test material previously diluted with a culture medium (refer to Table 2).
Next, for staining, first, the cell supernatant present in a well was removed, and fixed with 4% paraformaldehyde. Afterward, after adding a 100% 1,2-propanediol dehydration solution, the resulting sample was incubated for 5 minutes, and then an Oil-Red-O stain solution was added for staining of lipid droplets. After the Oil-Red-O staining, an 85% 1,2-propanediol stain differential solution was added for washing.
Finally, after filling a well with D.W. without drying the stained well, the formation of lipid droplets was confirmed by observation using a microscope.
After confirming the formation of lipid droplets using Oil-Red-O staining, a part stained with isopropanol was dissolved, and the degree of staining lipid droplets was confirmed by absorbance at 540 nm. The increase/decrease rate, compared to the normal control, was evaluated using an optical density (OD) value.

SIRT1 = target: T1, SIRT1 (Homo sapiens, UniProt Q96EB6); experiment: SIRT1 direct fluorescent assay; assay type: biochemical
T1 construct: purchased Cayman (Ann Arbor, Mich., USA)
T1 sequence (Q96EB6 1-747): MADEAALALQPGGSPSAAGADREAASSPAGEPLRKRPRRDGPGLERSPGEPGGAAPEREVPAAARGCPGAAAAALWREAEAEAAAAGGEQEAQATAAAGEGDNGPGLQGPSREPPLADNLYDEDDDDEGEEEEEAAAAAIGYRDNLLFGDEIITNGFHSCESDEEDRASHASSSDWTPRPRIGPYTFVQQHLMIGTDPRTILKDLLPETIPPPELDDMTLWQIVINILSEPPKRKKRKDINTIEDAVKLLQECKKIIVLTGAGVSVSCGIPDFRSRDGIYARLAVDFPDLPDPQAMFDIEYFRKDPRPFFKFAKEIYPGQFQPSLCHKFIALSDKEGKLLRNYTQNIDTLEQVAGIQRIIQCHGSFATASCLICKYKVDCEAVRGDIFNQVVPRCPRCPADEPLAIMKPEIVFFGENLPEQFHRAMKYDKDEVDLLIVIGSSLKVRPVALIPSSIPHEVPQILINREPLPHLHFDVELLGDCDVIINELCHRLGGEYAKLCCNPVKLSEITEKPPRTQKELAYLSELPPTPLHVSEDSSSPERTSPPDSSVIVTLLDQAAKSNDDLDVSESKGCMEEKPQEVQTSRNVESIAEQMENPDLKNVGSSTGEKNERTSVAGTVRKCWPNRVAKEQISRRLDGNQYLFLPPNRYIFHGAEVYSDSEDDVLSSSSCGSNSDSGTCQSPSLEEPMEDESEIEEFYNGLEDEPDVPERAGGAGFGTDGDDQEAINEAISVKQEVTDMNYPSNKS
Procedure: All materials were provided from a Sirt1 direct fluorescent screening assay kit (Cayman, Ann Arbor, Mich., USA).
SIRT1, p53 conjugated aminomethyl coumarin (AMC) protein, and 3 mM NAD^+ were added to a diluted analysis buffer (50 mM Tris-HCl, pH 8.0, 137 mM NaCl, 2.7 mM KCl, and 1 mM MgCl2).
25 μL of the analysis buffer, 5 μL of diluted SIRT1, and 5 μL of a solvent were added to each of three 100% initial activity wells of a 96-well plate.
30 μL of the analysis buffer and 5 μL of a solvent were added to each of three background wells of the 96-well plate.
25 μL of the analysis buffer, 5 μL of diluted SIRT1, and 5 μL of a diluted test compound were added to each of three sample wells of the 96-well plate. The final DMSO concentration was less than 2%.
15 μL of a 3 mM NAD^+-containing substrate solution was added to all wells to begin the reaction. The 96-well plate was covered with a plate cover, and then incubated in a shaker at room temperature (25 to 30° C.) for 45 minutes.
A stop/developing solution was prepared. To prepare the final 5 mL solution, 200 μL of nicotinamide (NAM, Sigma-Aldrich) was added to a color developing powder weighing 30 mg, 4.8 mL of a diluted analysis buffer was added thereto, and the resulting mixture was stirred until the powder became a solution.
The plate cover was removed, and 50 μL of the stop/developing solution was added to each well.
The 96-well plate was covered with a plate cover, and incubated at room temperature (25 to 30° C.) for 30 minutes.
The plate cover was removed, and the plate was read using Cytation 5 at an excitation wavelength of 360 nm and an emission wavelength of 450 nm.
The mean fluorescence of each sample was measured.
The fluorescence of the background wells was subtracted from the fluorescence of the 100% initial activity wells and sample wells.
To determine the percent of each sample, each sample value was subtracted from the 100% initial activity value, and the resulting value was divided by the 100% initial activity value and then multiplied by 100 and added to 100, which was expressed as a percentage.

SMILES: CSc1ccc(/C=C/C=C/C(=O)N2CCCC(O)C2)cc1 (centres unmarked) [R-7, (2E,4E)-1-(3-hydroxypiperidine-1-yl)-5-(4-(methylthio)phenyl)penta-2,4-dien-1-one]
- triglyceride content (FIG. 3) (3T3-L1 preadipocytes [1]): lower than that of the test group treated with R-3
- glycerol content (FIG. 4) (3T3-L1 preadipocytes [2]): lower than that of the test group treated with R-3
- amount of stained lipid droplets (Oil-Red-O dissolved in isopropanol, absorbance at 540 nm, FIG. 2) (3T3-L1 preadipocytes [3]): less than that of the test groups treated with R-3 and 4

SMILES: CSc1ccc(/C=C/C=C/C(=O)N2CCC(O)CC2)cc1 [R-8, (2E,4E)-1-(4-hydroxypiperidine-1-yl)-5-(4-(methylthio)phenyl)penta-2,4-dien-1-one]
- triglyceride content (FIG. 3) (3T3-L1 preadipocytes [1]): lower than that of the test group treated with R-3
- glycerol content (FIG. 4) (3T3-L1 preadipocytes [2]): lower than that of the test group treated with R-3
- amount of stained lipid droplets (Oil-Red-O dissolved in isopropanol, absorbance at 540 nm, FIG. 2) (3T3-L1 preadipocytes [3]): less than that of the test groups treated with R-3 and 4

SMILES: COC1CCN(C(=O)/C=C/C=C/c2ccc(SC)cc2)CC1 [R-9, (2E,4E)-1-(4-methoxypiperidine-1-yl)-5-(4-(methylthio)phenyl)penta-2,4-dien-1-one]
- triglyceride content (FIG. 3) (3T3-L1 preadipocytes [1]): lower than that of the test group treated with R-3
- glycerol content (FIG. 4) (3T3-L1 preadipocytes [2]): lower than that of the test group treated with R-3
- amount of stained lipid droplets (Oil-Red-O dissolved in isopropanol, absorbance at 540 nm, FIG. 2) (3T3-L1 preadipocytes [3]): less than that of the test groups treated with R-3 and 4

SMILES: CSc1ccc(/C=C/C=C/C(=O)N2CCC(NC(C)=O)CC2)cc1 [R-11, N-(1-((2E,4E)-5-(4-(methylthio)phenyl)penta-2,4-dienoyl)piperidine-4-yl)acetamide]
- triglyceride content (FIG. 3) (3T3-L1 preadipocytes [1]): lower than that of the test group treated with R-3
- glycerol content (FIG. 4) (3T3-L1 preadipocytes [2]): lower than that of the test group treated with R-3
- amount of stained lipid droplets (Oil-Red-O dissolved in isopropanol, absorbance at 540 nm, FIG. 2) (3T3-L1 preadipocytes [3]): less than that of the test groups treated with R-3 and 4

SMILES: COc1ccc(/C=C/C=C/C(=O)N2CCN(C)CC2)cc1 [R-15, (2E,4E)-5-(4-methoxyphenyl)-1-(4-methylpiperazine-1-yl)penta-2,4-dien-1-one]
- triglyceride content (FIG. 3) (3T3-L1 preadipocytes [1]): lower than that of the test group treated with R-3
- glycerol content (FIG. 4) (3T3-L1 preadipocytes [2]): lower than that of the test group treated with R-3
- amount of stained lipid droplets (Oil-Red-O dissolved in isopropanol, absorbance at 540 nm, FIG. 2) (3T3-L1 preadipocytes [3]): less than that of the test groups treated with R-3 and 4

SMILES: CSc1ccc(/C=C/C=C/C(=O)N2CCN(C(C)=O)CC2)cc1 [R-17, (2E,4E)-1-(4-acetylpiperazine-1-yl)-5-(4-(methylthio)phenyl)penta-2,4-dien-1-one]
- triglyceride content (FIG. 3) (3T3-L1 preadipocytes [1]): lower than that of the test group treated with R-3
- glycerol content (FIG. 4) (3T3-L1 preadipocytes [2]): lower than that of the test group treated with R-3
- amount of stained lipid droplets (Oil-Red-O dissolved in isopropanol, absorbance at 540 nm, FIG. 2) (3T3-L1 preadipocytes [3]): less than that of the test groups treated with R-3 and 4

SMILES: CCOC(=O)N1CCN(C(=O)/C=C/C=C/c2cccc(OC)c2)CC1 [R-22, Ethyl ((2E,4E)-5-(3-methoxyphenyl)penta-2,4-dienoyl)piperazine-1-carboxylate]
- increase of SIRT1 activity (FIG. 18) (SIRT1; 2 μM): about 5%

SMILES: COc1ccc(/C=C/C=C/C(=O)N2CCN(C(=O)OC(C)C)CC2)cc1 [R-26, Isopropyl 4-((2E,4E)-5-(4-methoxyphenyl)penta-2,4-dienoyl)piperazine-1-carboxylate]
- increase of SIRT1 activity (FIG. 18) (SIRT1; 10 μM): ≥ 10%

SMILES: CSc1ccc(/C=C/C=C/C(=O)N2CCN(C(=O)OC(C)(C)C)CC2)cc1 [R-28, Tert-butyl 4-((2E,4E)-5-(4-(methylthio)phenyl)penta-2,4-dienoyl)piperazine-1-carboxylate]
- triglyceride content (FIG. 3) (3T3-L1 preadipocytes [1]): lower than that of the test group treated with R-3
- glycerol content (FIG. 4) (3T3-L1 preadipocytes [2]): lower than that of the test group treated with R-3
- amount of stained lipid droplets (Oil-Red-O dissolved in isopropanol, absorbance at 540 nm, FIG. 2) (3T3-L1 preadipocytes [3]): less than that of the test groups treated with R-3 and 4

SMILES: COc1ccc(/C=C/C=C/C(=O)N2CCOCC2)cc1 [R-29, (2E,4E)-5-(4-methoxyphenyl)-1-morpholinopenta-2,4-dien-1-one]
- triglyceride content (FIG. 3) (3T3-L1 preadipocytes [1]): lower than that of the test group treated with R-3
- glycerol content (FIG. 4) (3T3-L1 preadipocytes [2]): lower than that of the test group treated with R-3
- amount of stained lipid droplets (Oil-Red-O dissolved in isopropanol, absorbance at 540 nm, FIG. 2) (3T3-L1 preadipocytes [3]): less than that of the test groups treated with R-3 and 4

SMILES: CSc1ccc(/C=C/C=C/C(=O)N2CCOCC2)cc1 [R-30, (2E,4E)-5-(4-(methylthio)phenyl)-1-morpholinopenta-2,4-dien-1-one]
- triglyceride content (FIG. 3) (3T3-L1 preadipocytes [1]): lower than that of the test group treated with R-3
- glycerol content (FIG. 4) (3T3-L1 preadipocytes [2]): lower than that of the test group treated with R-3
- amount of stained lipid droplets (Oil-Red-O dissolved in isopropanol, absorbance at 540 nm, FIG. 2) (3T3-L1 preadipocytes [3]): less than that of the test groups treated with R-3 and 4

— patent publication US20200157048A1, “(2E,4E)-5-PHENYL-PENTA-2,4-DIEN-1-ONE DERIVATIVE” (BIOWAY., INC, priority 2018, published 2020)
